# In ChEMBL document CHEMBL1125669, “Synthesis of potential dual-acting radiation sensitizer antineoplastic agents: 2,2-dimethylphosphoraziridines containing 2-nitroimidazoles or other electron-affinic moieties” (1991):
# Assays:
# Assay type in all cases: functional
# [1] = system: Mus musculus; assay: In vivo antitumor activity against P-388 leukemia in CDF1 mice at 32 mg or 93 umol by ip administration expressed as average wt. change determined between day 0 and day 6 of experiment
# [2] = system: Mus musculus; assay: In vivo antitumor activity against P-388 leukemia in CDF1 mice at 16 mg or 47 umol by ip administration expressed as median survival time of drug treated mice/median survival time of control mice x100
# [3] = system: Mus musculus; assay: In vivo antitumor activity against P-388 leukemia in CDF1 mice at 256 mg or 746 umol by ip administration expressed as average wt. change determined between day 0 and day 6 of experiment
# [4] = system: Mus musculus; assay: In vivo antitumor activity against P-388 leukemia in CDF1 mice at 32 mg or 93 umol by ip administration expressed as median survival time of drug treated mice/median survival time of control mice x100
# [5] = system: Mus musculus; assay: In vivo antitumor activity against P-388 leukemia in CDF1 mice at 64 mg or 186 umol by ip administration expressed as average wt. change determined between day 0 and day 6 of experiment
# [6] = system: Mus musculus; assay: In vivo antitumor activity against P-388 leukemia in CDF1 mice at 128 mg or 373 umol by ip administration expressed as median survival time of drug treated mice/median survival time of control mice x100
# [7] = system: Mus musculus; assay: In vivo antitumor activity against P-388 leukemia in CDF1 mice at 256 mg or 746 umol by ip administration expressed as median survival time of drug treated mice/median survival time of control mice x100
# [8] = system: Mus musculus; assay: In vivo antitumor activity against P-388 leukemia in CDF1 mice at 128 mg or 373 umol by ip administration expressed as average wt. change determined between day 0 and day 6 of experiment
# [9] = system: Mus musculus; assay: In vivo antitumor activity against P-388 leukemia in CDF1 mice at 8 mg or 23 umol by ip administration expressed as average wt. change determined between day 0 and day 6 of experiment
# [10] = system: Mus musculus; assay: In vivo antitumor activity against P-388 leukemia in CDF1 mice at 8 mg or 23 umol by ip administration expressed as median survival time of drug treated mice/median survival time of control mice x100
# [11] = system: Mus musculus; assay: In vivo antitumor activity against P-388 leukemia in CDF1 mice at 16 mg or 47 umol by ip administration expressed as average wt. change determined between day 0 and day 6 of experiment
# [12] = system: Mus musculus; assay: In vivo antitumor activity against P-388 leukemia in CDF1 mice at 64 mg or 186 umol by ip administration expressed as median survival time of drug treated mice/median survival time of control mice x100
smiles,measurement,setting,value
CC1(C)CN1P(=O)(OCCn1ccnc1[N+](=O)[O-])N1CC1(C)C (configuration not stated),Average weight change,[1],-0.9 g
same,T/C,[2],122%
same,Average weight change,[3],-2.8 g
same,T/C,[4],111%
same,Average weight change,[5],-1.1 g
same,T/C,[6],189%
same,T/C,[7],228%
same,Average weight change,[8],-1.3 g
same,Average weight change,[9],0.2 g
same,T/C,[10],106%
same,Average weight change,[11],0.1 g
same,T/C,[12],150%
